From publication PMC6272662, “Trypanocidal Activity of Long Chain Diamines and Aminoalcohols” (Molecules, 2015)
Where two headings read alike, the source gives them in different places.

Experiments:
[1] = tested on: Chagas disease; design: method as in PMID 22614520, PMID 22760123, PMID 22686518, PMID 19967227; conditions: ref [6],[7],[8],[9], cited from earlier work
[2] = tested on: NCTC-929 fibroblasts; assay: in vitro; format: cell-based; conditions: NCTC-929 fibroblasts, 48 h, resazurin, mean ± SEM; read-out: Cytotoxicity NCTC-929 LC50
Protocol: (§1) NCTC-929 cells were placed in triplicate in 96-well microtitre plates at 15 × 10^3 cells per well in 100 µL of MEM supplemented with FBS and antibiotics. The cells were grown overnight at 37 °C in 5% CO2. Thereafter, the medium was removed and the compounds were added in 200 µL of medium and plates were incubated 48 h at 37 °C in 5% CO2. After incubation, 20 µL of 2 mM resazurin (Sigma) solution was added to each well. The plates were incubated for 3 h and metabolic activity was measured by fluorimetric readings taken in a plate fluorometer (Infinite 200, TECAN, Mannedorf, Switzerland) at λexcitation 535 nm and λemission 590 nm, according to the Alamar blue® Assay.

[3] = tested on: Trypanosoma cruzi epimastigotes CL Brener strain clone B5 (CL-B5); assay: Epimastigote susceptibility assay, CL-B5 clone (β-galactosidase activity, CPRG); format: cell-based; conditions: for Epimastigotes CL-B5 Clone SI: NCTC-929 cytotoxicity / epimastigote IC50; for Epimastigotes CL-B5 Clone PNFX (nifurtimox IC50/compound IC50) / IC50: epimastigotes, CL-B5 clone; for IC50: 72 h at 28 °C, β-galactosidase readout, mean ± SEM
Protocol: (§2) For in vitro studies, the strains MHOM/CO/04/MG (MG), MHOM/CO/05/JEM (JEM) and CL Brener strain clone B5 (CL-B5) were used. The MG and JEM strains correspond to Group I and Haplotype Ia isolates from two Colombian patients in the acute phase, and CL-B5 is a strain stably transfected with Escherichia coli β-galactosidase gene (lacZ). Epimastigotes were grown in plastic culture flasks at 28 °C, in axenic liver-infusion tryptose (LIT) growth medium, supplemented with 10% heat inactivated (30 min at 56 °C) foetal calf serum (FCS; Sigma), […] hemin (Sigma), and 10 µg/mL gentamycin (Sigma) and harvested in the exponential phase for conducting the experiments. Cultures were continuously maintained in logarithmic growth by weekly passages.
Trypanocidal activity against CL-B5 strain was also assessed by measuring β-galactosidase activity. Briefly, log-phase epimastigotes were seeded in 96-well microplates at a density of 2.5 × 10^5 parasites/mL in a final volume of 200 μL/well and incubated within the compounds for 72 h at 28 °C. Afterwards, 50 μL of the β-galactosidase substrate chlorophenol red β-D-galactopyranoside (CPRG, Roche) in 0.9% Triton X-100 (Panreac) solution were added to each well (200 μM, pH 7.4) and the plates incubated at 37 °C for 3 h. Anti-epimastigote activity was estimated by reading absorbance at 595 nm. Each concentration was assayed by triplicate, in three independent experiments. […] In all spectrophotometric assays, anti-epimastigote activity percentages were calculated as (OD control wells − OD experimental wells) ×100/OD control wells.
(§3) Furthermore the Selectivity Index (SI = mammalian cell LC50/epimastigote IC50) for each compound was calculated to compare the antiprotozoal activity with its respective mammalian cell cytotoxicity.

[4] = tested on: Trypanosoma cruzi epimastigotes strain JEM (MHOM/CO/05/JEM); assay: Epimastigote susceptibility assay, JEM strain (Trypan Blue and XTT); format: cell-based; conditions: for JEM Strain SI (Selectivity Index: LC50-macrophages/IC50-epimastigotes): JEM strain epimastigotes vs J774.2 macrophages; for JEM Strain PNFX (potency relative to NFX = IC50-NFX/IC50-compound; also called NI) / IC50: epimastigotes, JEM strain; for IC50: 72 h at 28 °C, 0.1-70.0 µM, mean ± SEM
Protocol: as §2
(§4) Three different strains of T. cruzi were used for the primary screening on epimastigote forms. For strains MG and JEM, the screening assay was performed with approximately 1 × 10^5 epimastigotes in logaritmic growth phase in 200 μL of supplemented LIT medium per well in 96-well flat bottoned plates (Costar, Corning, Cornig, NY, USA). […] The plates were incubated for 72 h at 28 °C and all experimental conditions were evaluated in triplicate in three independent experiments. The epimastigote growth inhibition was microscopically determined by the Trypan Blue dye exclusion assay and XTT (2,3-bis-(2-methoxy-4-nitro-5-sulfophenyl)-5-[(phenylamino)carbonyl]-2H-tetrazolium hydroxide). Regarding the first method, an aliquot from every culture was suspended in 0.4% trypan blue solution for 5 min and cell viability was determined under microscope by counting live parasites in each condition in a Neubauer chamber. Anti-epimastigote activity percentage was calculated as (Parasite counts in control wells-Parasite counts in experimental wells) × 100/Parasite counts in control wells. Trypanocidal activity over both strains was also measured adding 50 μL of XTT solution per well to obtain a final concentration of 0.3 mg/mL. The plate was re-incubated 24 h in the dark at 37 °C and orange formazan solution formed, was spectrophotometrically quantified at 450 nm with a 630 nm reference filter, using an Ear400FT ELISA reader.
as §3

[5] = tested on: Trypanosoma cruzi epimastigotes strain MG (MHOM/CO/04/MG); assay: Epimastigote susceptibility assay, MG strain (Trypan Blue and XTT); format: cell-based; conditions: for MG Strain SI (Selectivity Index: LC50-macrophages/IC50-epimastigotes): MG strain epimastigotes vs J774.2 macrophages; for MG Strain PNFX (potency relative to NFX = IC50-NFX/IC50-compound; also called NI) / IC50: epimastigotes, MG strain; for IC50: 72 h at 28 °C, 0.1-70.0 µM, mean ± SEM
Protocol: as §2, §4, §3

[6] = tested on: Trypanosoma cruzi amastigotes CL-B5 clone; assay: Amastigote susceptibility assay, CL-B5 clone in NCTC-929 fibroblasts (CPRG); format: cell-based; conditions: for Amastigotes CL-B5 Clone SI: NCTC-929 cytotoxicity / amastigote IC50; for IC50: intracellular amastigotes in NCTC-929 fibroblasts, 7 days, mean ± SEM
Protocol: For the anti-amastigote assays, axenic cultures of epimastigotes reaching their stationary phase of growth (14 day-old cultures) were used to infect non-confluent monolayers of NCTC-929 fibroblasts to obtain tissue culture derived trypomastigotes (TCT). After 24 h at 33 °C in a humidified 5% CO2 atmosphere, the infected cultures were washed with phosphate buffer saline (PBS) to removed non-penetrated epimastigotes. TCT were harvested from the supernatant of the cultures after one week of incubation in these conditions of temperature and humidity.
For this assay, 120 μL of BME containing 10,000 NCTC-929 fibroblasts/well were seeded in 48-well plates (Costar) and after their attachment, infected with TCT obtained as above in a 1:6 cell-parasite ratio. The plates were incubated at 33 °C and 5% CO2 overnight and after the infection, experimental wells were washed with PBS to eliminate non-penetrated TCT. […] Then, 50 μL of a CPRG solution in 3% Triton X-100 (pH 7.4) were added to each well in a final concentration of 400 μM and the plates incubated 3 h at 37 °C. Finally, anti-amastigote activity was estimated by reading absorbance at 595 nm in a plate reader (Infinite 200, Tecan) and calculated as in Fonseca-Berzal et al.. IC50 and NI indexes were calculated as above.

[7] = tested on: J774.2 macrophages; assay: in vitro; conditions: for CC50: read-out: Macrophages LC50, J774.2 macrophages, 72 h, mean ± SEM; for times less toxic than NFX: macrophages LC50 relative to NFX
Protocol: (§5) The mouse cell lines J774.2 macrophages and NCTC clone 929 fibroblasts were used and cultured in plastic culture flasks. J774.2 and NCTC-929 cells were grown using DMEM and BME without phenol-red, respectively. Both media were supplemented with 10% heat inactivated fetal calf serum, 2 mM glutamine, 100 U/mL penicillin and 100 μg/mL streptomycin. Cell cultures were maintained at 37 °C in a humidified atmosphere containing 5% CO2 and subpassaged once a week. Cells in the pre-confluence phase were harvested with an EDTA-trypsin solution for the experiments.
(§6) Unspecific cytotoxicity was evaluated over phagocytic macrophages J774.2 cell line. To study cytotoxicity on J774.2 cells, 200 μL of a suspension of 2 × 10^5 macrophages/mL were added to 96 well flat-bottom microplates (Sigma). Cells were allowed to attach for 24 h at 37 °C and then exposed to the compounds for 72 h at the same concentrations as used for drug screening. […] Each concentration was assayed by triplicate, in independent experiments. Cytotoxicity was assessed by the Trypan Blue and XTT techniques and LC50 was calculated as described above.

[8] = in vitro; format: cell-based; conditions: mouse
Protocol: as §1

[9] = in vitro; conditions: mouse
Protocol: as §5, §6

[10] = chronic cases of Chagas disease
[11] = Trypanosoma cruzi, NCTC929, 168 h

Compound | Epimastigotes CL-B5 Clone SI [3] | Epimastigotes CL-B5 Clone PNFX (nifurtimox IC50/compound IC50) [3] | JEM Strain SI (Selectivity Index: LC50-macrophages/IC50-epimastigotes) [4] | JEM Strain PNFX (potency relative to NFX = IC50-NFX/IC50-compound; also called NI) [4] | MG Strain SI (Selectivity Index: LC50-macrophages/IC50-epimastigotes) [5] | MG Strain PNFX (potency relative to NFX = IC50-NFX/IC50-compound; also called NI) [5] | Amastigotes CL-B5 Clone SI [6] | Amastigotes CL-B5 Clone PNFX (nifurtimox IC50/compound IC50) [6] | CC50 at 48 h [8] | IC50 ([3]; Trypanosoma cruzi) | IC50 ([4]; Trypanosoma cruzi, 72 h) | IC50 ([5]; Trypanosoma cruzi, 72 h) | IC50 [6, 11] | CC50 at 72 h [9] | other results
O=C(Cn1ccnc1[N+](=O)[O-])NCc1ccccc1 [Bz, benznidazole] |  |  |  |  |  |  |  |  |  |  |  |  |  |  | average cure rate ([1]; acute cases of Chagas disease): ~80%; mild to moderate dermatitis ([1]; adults): up to 30%; average cure rate [1, 10]: less than 20%
2-tert-Butoxycarbonyl-hexadecan-1,2-diamine [Compound 15] | 10.6 | 4.3 | 2.4 | 0.7 | 4.0 | 1.8 | 9.8 | 0.2 |  |  |  |  |  |  | CC50 [2]: 25.6 ± 0.06 µM; IC50 [3]: 2.4 ± 0.01 µM; IC50 [4]: 20.4 ± 0.3 µM; IC50 [5]: 12 ± 2.15 µM; IC50 [6]: 2.6 ± 0.23 µM; CC50 [7]: 48.1 ± 0.15 µM
CCCCCCCCCCCCCCC(N)CO (centres unmarked) [Compound 2, 2-Aminohexadecanol] | 7.2 | 3.0 | 26 | 4.9 | 3.3 | 0.9 | 14.0 | 0.3 | 25.2 ± 0.12 µM | 3.5 ± 0.01 µM | 3 ± 1.5 µM | 23.7 ± 3.15 µM | 1.8 ± 0.12 µM | 77.8 ± 0.35 µM | 
CCCCCCCCCCC(CO)N(CCCC)CCCC (centres unmarked) [Compound 9] |  |  | 1.3 | 0.3 | 1.6 | 0.5 |  |  |  |  | 50.5 ± 0.7 µM | 39.2 ± 0.2 µM |  | 63.7 ± 0.73 µM | times less toxic than NFX [7]: 1.3
2-(tert-Butoxycarbonyl)-dodecan-1,2-diamine [Compound 14] | 11.8 | 4.2 | 3.3 | 1.0 | 4.4 | 2.0 | 9.9 | 0.2 |  |  |  |  |  |  | CC50 [2]: 29.6 ± 0.01 µM; IC50 [3]: 2.5 ± 0.03 µM; IC50 [4]: 14.5 ± 0.05 µM; IC50 [5]: 10.8 µM; IC50 [6]: 3 ± 0.21 µM; CC50 [7]: 47.1 ± 0.35 µM
CCCCCCCCCCCCCCCCC(CN)NC(=O)OC(C)(C)C (centres unmarked) [Compound 16] |  |  | 3.6 | 2.2 | 1.7 | 1.5 |  |  |  |  | 6.7 ± 2.1 µM | 13.9 ± 1 µM |  | 24.1 ± 0.2 µM | 
CCCCCCCCCCCCCCC(CO)NCC (centres unmarked) [Compound 5, 2-(Ethylamino)hexadecanol] | 9.8 | 3.1 | 2.3 | 0.8 | 2.0 | 1.0 | 54 | 1.0 | 32.4 ± 0.02 µM | 3.3 ± 0.1 µM | 19.3 ± 1.35 µM | 21.6 ± 2.95 µM | 0.6 ± 0.25 µM | 43.4 ± 0.5 µM | 
CC1CS(=O)(=O)CCN1/N=C/c1ccc([N+](=O)[O-])o1 (centres unmarked) [NFX, nifurtimox, reference compound] |  |  |  |  |  |  |  |  |  | 10.4 ± 1.3 µM | 14.8 ± 1.24 µM | 21.2 ± 1.16 µM | 0.6 ± 0.01 µM |  | average cure rate [1, 10]: less than 20%
CCCCCCCCCCCCCCC(CO)NCCCC (centres unmarked) [Compound 6, 2-(Butylamino)hexadecanol] | 22.7 | 2.5 |  | 5.3 |  | 6.6 | 47.8 | 0.3 | 95.6 ± 1.19 µM | 4.2 ± 0.52 µM | 2.8 ± 0.75 µM | 3.2 ± 0.2 µM | 2 ± 0.27 µM | 63.9 ± 3.5 µM | times less toxic than NFX [7]: 1.3
